One series has as its system OVCAR-8 and ID8 cells. The series is described as follows: Clonogenic assay. The class given is cell-based. The method, then: (§1) We tested the relationship between AzPs dose and the viability of human ovarian cancer cell lines and the ID8 murine ovarian cancer cell line.
(§2) Clonogenic assay: 300 suspended OC cells were plated in each well of 12 well plates (Corning-Costar, #3598) and incubated for 24 h for attachment. The media was replaced after 24 h with media containing a respective concentration of the test compound and incubated for 5-8 days until visible colonies appeared in vehicle-treated wells. Cells were then washed and fixed with 2% paraformaldehyde, followed by washing and staining with 0.5% Crystal violet for 1 h. Cells were de-stained using DI water and allowed to dry. Colonies were counted under the microscope at 100× magnification.
(§3) FIG. 1A) Lead optimization of SU093 to obtain SU056. FIG. 1B) IC50 values of SU093 and SU056 on various ovarian cancer cells. Clonogenic survival of OC cells treated with SU093 or SU056. […] FIG. 1C) Representative colony formation from respective wells. FIG. 1D) Number of colonies formed after SU093 and SU056 treatment. […] FIG. 1F) Cell cycle distribution of propidium iodide (PI)-stained OVCAR8, SKOV3, and ID8 cells. […] FIG. 1G) Effects of SU093 and SU056 on apoptotic cell death analyzed by Annexin-FITC staining. […] FIG. 1H) Cell migration assay.

A further series relates to OC cell lines. Description: Cell migration assay (Boyden chamber). Particulars: different OC cell lines, P<0.05. The class given is cell-based. The method, then: (§4) To determine whether proliferation inhibition was the dominant factor driving the reduction in OC viability seen with AzP treatment, we used propidium iodide and annexin-FITC stains with flow cytometry to measure the distribution of cell cycle phases after treatment. […] Furthermore, in the Boyden chamber assay for cell migration, SU093 inhibited cell migration by 40-46% (1 μM, P<0.05) in different OC cell lines.
Cell migration assay: 1×10^5 cells were plated in 60 mm cell culture dishes (Corning-Falcon, #353002) and incubated for 24 h. […] Cells were trypsinized and collected in a conical tube for each plate. Pellets of cells were resuspended, and live cells were counted using a hemocytometer and trypan blue staining. 40,000 live cells were then plated in the upper chamber of 8-micron transwell (Corning-Falcon, #353097) with 0.2% FBS media. The lower chamber contained 10% FBS complete media. […] Each transwell was washed, swiped for non-migrated cells and fixed using 75% ethanol. Fixed transwells were stained with 0.5% crystal violet for 1 h. De-stained transwell membranes were cut and mounted on a slide using DPX mounting media. Migrated cells were counted under the microscope at 100× magnification.
FIG. 1A) Lead optimization of SU093 to obtain SU056. […] FIG. 1G) Effects of SU093 and SU056 on apoptotic cell death analyzed by Annexin-FITC staining. […]

For series [1], the system named is OVCAR8, SKOV3, and ID8 cells. The series is described as follows: Cell cycle analysis (propidium iodide, flow cytometry). Particulars: 12 h treatment; PI-stained OVCAR8, SKOV3, ID8. The series is classed as cell-based. Here is the method:
as §4
Cell cycle analysis: 30,000 OC cells were plated in each well of 12 well plates and incubated for 24 h. […] Both live and dead cells were collected via trypsinization and cell pellets were fixed with 70% ethanol. Fixed cells were stained using propidium iodide (PI) cocktail (80 μg/mL RNase A and 50 μg/mL PI in saponin-EDTA solution) and incubated at 4° C. overnight. Each sample was analyzed using a Guava® easyCyte™ Flow Cytometer (Millipore, Burlington, MA). FlowJo software calculated the % cells in each cell cycle phase.
as §3

Series [2] can be described thus: Liver toxicity parameters (ALT, AST, ALKP) in ID8 study. The following applies: 20 mg/kg daily IP, 42 days. The class given is in vivo, C57BL/6 mice. The method, then:
(§5) These promising results led us to test SU093 and SU056 in vivo. C57BL/6 mice were implanted with 2×10^6 firefly luciferase (luc+)-expressing ID-8 syngeneic ovarian cancer cells subcutaneously. Once the tumors reached 100 mm^3 in size, we began daily intraperitoneal treatment with SU093 and SU056 at 20 mg/kg (vehicle control 30% PEG-300 in saline). Tumor growth was monitored via bioluminescence imaging (IVIS).
(§6) In vivo xenograft model and drug efficacy study: All animal experiments were reviewed and approved by the Animal Care and Use Committee of Stanford University, CA, USA. Luciferase tagged ID8 (2×10^6) or OVCAR8 (5×10^6) cells were implanted into the right flank of 6-7-week-old female C57BL/6 mice and NOD/SCID mice, respectively. Respective treatment began after tumors grew to 100-200 mm^3 diameters. The ID8 syngeneic mice model was treated with a vehicle (30% PEG-300 in saline), 20 mg/kg SU093, and 20 mg/kg SU056 intraperitoneally (IP) daily for 42 days. At the end of treatment, blood was collected from each mouse and analyzed for liver toxicity parameters, including Alanine Aminotransferase (ALT), Aspartate Aminotransferase (AST), and Alkaline Phosphatase (ALKP). […]

The test system of the next series is ID-8 tumor xenograft. Description: ID8 syngeneic ovarian tumor model, tumor growth and lung metastasis. The series is classed as in vivo, C57BL/6 mice. The method, then:
as §5
Due to prior observation of a significant reduction in the migratory ability of OC cells treated with the two drugs (FIG. 1H), we also measured the effect of drug treatment on ovarian cancer metastases. At the end of above experiment, lungs were fixed and metastatic foci were counted under the dissecting microscope followed by H&E staining.
In vivo xenograft model and drug efficacy study: All animal experiments were reviewed and approved by the Animal Care and Use Committee of Stanford University, CA, USA. Luciferase tagged ID8 (2×10^6) or OVCAR8 (5×10^6) cells were implanted into the right flank of 6-7-week-old female C57BL/6 mice and NOD/SCID mice, respectively. Respective treatment began after tumors grew to 100-200 mm^3 diameters. The ID8 syngeneic mice model was treated with a vehicle (30% PEG-300 in saline), 20 mg/kg SU093, and 20 mg/kg SU056 intraperitoneally (IP) daily for 42 days. At the end of treatment, blood was collected from each mouse and analyzed for liver toxicity parameters, including Alanine Aminotransferase (ALT), Aspartate Aminotransferase (AST), and Alkaline Phosphatase (ALKP). OVCAR8 xenograft mice model was treated with vehicle (30% PEG-300 in saline), 5 mg/kg paclitaxel (once a week), 10 mg/kg SU056 (daily), a combination of paclitaxel (5 mg/kg, once a week) and SU056 (10 mg/kg, daily) for 4 weeks. Mice from both studies were euthanized, the tumor and different organs were collected and fixed in neutral buffered formalin and further processed for immunohistochemical analysis.
FIGS. 2A-2F. SU093 and SU056 inhibit mice ovarian ID-8 tumor xenograft growth in C57BL/6 mice. Mice were subcutaneously injected with ID-8 cells mixed with Matrigel in 1:1 ratio and the drug treatment started when tumors reached 100 mm^3. […] FIG. 2B) Tumor volume/mouse as a function of time. […] FIG. 2C) Tumor weight/mouse at the end of the study. […] FIG. 2D) Liver toxicity parameters at the end of 42 days showing no significant difference between control, SU093, and SU056. FIGS. 2E-2F) Lung metastasis assay. FIG. 2E) H&E staining of the lung (red arrow indicates the metastasis from ID8 xenograft). Scale bar, 250 μm. FIG. 2F) No. of lung metastatic nodules.

The subject of another series is SKOV-3. Description: Clonogenic assay. The following applies: 0.5 & 1 μM. The class given is cell-based, human. The method, then: as §1, §2, §3
A further series deals with ovarian cancer cells. The series is described as follows: Apoptotic cell death assay (Annexin-FITC). The series is classed as cell-based. The following applies: 24 h treatment; Annexin-FITC staining. The method, then: as §4
Apoptotic cell death assay: Cells were plated and treated as described in cell cycle analysis assay above. Treated cells were incubated for 24 h and both live and dead cells were collected. Cells were stained with Annexin V and PI using FITC Annexin V apoptosis detection kit (BD Pharmingen, San Jose, CA) by following the manufacturer's protocol. Guava® easyCyte™ Flow Cytometer was used to analyze the stained cells.
as §3

The next series relates to YB-1 and MDR1. The series is described as follows: Immunoblotting of YB-1 and MDR1 in OVCAR8 cells. The class given is cell-based, human. Particulars: paclitaxel 0.5 nM, SU056 0.5 μM, 12 h.
The test system of another series is OVCAR8 OC tumors. Description: OVCAR8 xenograft combination study. The series is classed as in vivo, NOD-SCID mice. Particulars: SU056 10 mg/kg daily, paclitaxel 5 mg/kg weekly, intraperitoneal, 28 days. The method, then:
In a pharmacokinetics study in vivo, injection of 20 mg/kg SU056 led to a maximum serum concentration of 28.19 μg/mL with a T1/2 of ˜45 min. We then tested the synergism of paclitaxel and SU056 co-treatment in vivo in NOD-SCID mice implanted with OVCAR8 OC tumors as described above. Mice were given daily treatment of SU056 (10 mg/kg) and weekly treatment of paclitaxel (5 mg/kg) were administered intraperitoneally. […] This likely resulted from decreased paclitaxel efflux from OVCAR8 cells in the presence of SU056.
as §6

Structures are written as SMILES.

Protocol for YB-1 and MDR1: Immunoblotting: Once 70% confluency of OC cells plated in 100 mm cell culture was obtained, dishes were treated with a respective concentration of SU056 for a respective time. At the end of treatment, cells were collected and lysed using M-PER™ lysis solution (Thermo Scientific, #78503), supplemented with Halt protease and phosphatase inhibitor cocktail (Thermo Scientific, #78440). An equal amount (40-60 μg) of proteins was resolved using 8%/10%/12% SDS-PAGE gel electrophoresis. Proteins were then transferred onto a PVDF membrane (Bio-Rad, #162-01277). Blocked membranes were incubated with respective primary antibody solution prepared in 5% nonfat milk TPBS at 4° C. overnight with gentle rocking. Primary antibody-probed membranes were washed and probed with respective HRP-conjugated secondary antibody. Proteins were detected using Immobilon® Crescendo Western HRP Substrate (Millipore, Germany) and visualized on an IVIS Lumina Imaging System (Perkin Elmer, Waltham, MA). […]

The inhibition is the change of the read-out against control, counted positive when it falls. Low values mean little suppression, high ones strong suppression. Regarding `COc1ccc2c(c1)N(CCO)C1=C(C(=O)OC1)C2c1cccc(F)c1` (stereo not shown) [SU093, 9-(3-fluorophenyl)-4-(2-hydroxyethyl)-6-methoxy-4,9-dihydrofuro[3,4-b]quinolin-1(3H)-one, reference compound], the OC colony formation result in the series on OVCAR-8 and ID8 cells was “decreased OC colony formation in a dose-dependent and significant manner”. Further, in the series with OC cell lines, the inhibition at 1 µM was in the range of 40 to 46%. Besides, the cell cycle distribution result in [1] was “G1 phase arrest”. For the same compound, the “impact on blood chemistry indicators (AST, ALT, alkaline phosphatase)” value in [2] is “no significant impact”. Besides, in the series with ID-8 tumor xenograft (20 mg/kg daily IP, at 42 days), the “reduction in tumor weight” value was 1.5 fold. In addition, the “tumor progression vs vehicle control” value in the series with ID-8 tumor xenograft (20 mg/kg daily intraperitoneal, bioluminescence imaging) is given as “significantly delay the tumor progression”. Besides, the “colony formation, effect on SKOV-3” value with SKOV-3 was “moderately affect”. Also, the apoptotic cell death entry in the series with ovarian cancer cells is on record as “induce apoptotic cell death”.
On to `CC(=O)O[C@H]1C(=O)[C@@]2(C)[C@H]([C@H](OC(=O)c3ccccc3)[C@]3(O)C[C@H](OC(=O)[C@H](O)[C@@H](NC(=O)c4ccccc4)c4ccccc4)C(C)=C1C3(C)C)[C@]1(OC(C)=O)CO[C@@H]1C[C@@H]2O` [paclitaxel, reference compound], for which, in the series with YB-1 and MDR1, the “expression of YB-1 and MDR1 (Western blot)” value is “upregulate the expression of YB-1 and MDR1”. Also, the OC tumor growth entry with OVCAR8 OC tumors is reported as “significant reduction in OC tumor growth”.
